Experiments:
Experiment in all cases: Test C pre/postemergence
Format in all cases: in vivo
[1] = tested on: cocklebur (Xanthium strumarium); details: for Cocklebur plant response rating: scale 0 to 100 (0 no effect, 100 complete control)
Procedure, shortened: (§1)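 Injury scored visually 12–14 days after application on 0–100 scale (100 = complete control), relative to controls. Compounds, formulated with surfactant in non-phytotoxic solvent, applied to soil at planting (pre) or to 1- to 4-leaf plants 2–18 cm tall (post) in greenhouse.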

[2] = tested on: lambsquarters (Chenopodium album); details: for Lambsquarters plant response rating: scale 0 to 100 (0 no effect, 100 complete control)
Procedure, shortened: as §1

[3] = tested on: goosegrass (Eleusine indica); details: for Goosegrass plant response rating: scale 0 to 100 (0 no effect, 100 complete control)
Procedure, shortened: as §1

[4] = tested on: crabgrass (Digitaria sanguinalis); details: for Crabgrass plant response rating: scale 0 to 100 (0 no effect, 100 complete control)
Procedure, shortened: as §1

[5] = tested on: eastern black nightshade (Solanum ptycanthum); details: Preemergence
Procedure, shortened: as §1

[6] = tested on: velvetleaf (Abutilon theophrasti); details: for Velvetleaf plant response rating: scale 0 to 100 (0 no effect, 100 complete control)
Procedure, shortened: as §1

[7] = tested on: bermudagrass (Cynodon dactylon); details: for Bermudagrass plant response rating: scale 0 to 100 (0 no effect, 100 complete control)
Procedure, shortened: as §1

corn (Zea mays) = details: for Corn plant response rating: scale 0 to 100 (0 no effect, 100 complete control)
Procedure, shortened: as §1

[8] = Postemergence, 250 g ai/ha, scale 0 to 100
[9] = Postemergence, 500 g ai/ha, scale 0 to 100
[10] = Preemergence, 62 g ai/ha, scale 0 to 100, 0 no effect, 100 complete control
[11] = Preemergence, 125 g ai/ha, scale 0 to 100
[12] = Preemergence, 250 g ai/ha, scale 0 to 100
[13] = Preemergence, 500 g ai/ha, scale 0 to 100
[14] = 62 g ai/ha, scale 0 to 100, 0 no effect, 100 complete control
[15] = Preemergence, 31 g ai/ha, scale 0 to 100, 0 no effect, 100 complete control

CN(C)N=Cc1nc(C2CC2)nc(N)c1Br [Compound 50]
Cocklebur plant response rating ([1]; Postemergence, 62 g ai/ha): 40
Cocklebur plant response rating ([1]; Postemergence, 125 g ai/ha): 40
Plant response rating, Cocklebur [1, 8]: 65
Plant response rating, Cocklebur [1, 9]: 90
Plant response rating, Cocklebur [1, 10]: 70
Plant response rating, Cocklebur [1, 11]: 85
Plant response rating, Cocklebur [1, 12]: 95
Plant response rating, Cocklebur [1, 13]: 95
Lambsquarters plant response rating ([2]; Postemergence, 62 g ai/ha): 70
Lambsquarters plant response rating ([2]; Postemergence, 125 g ai/ha): 75
Plant response rating, Lambsquarters [2, 8]: 80
Plant response rating, Lambsquarters [2, 9]: 85
Plant response rating, Lambsquarters [2, 10]: 95
Plant response rating, Lambsquarters [2, 11]: 100
Plant response rating, Lambsquarters [2, 12]: 100
Plant response rating, Lambsquarters [2, 13]: 100
Goosegrass plant response rating ([3]; Postemergence, 62 g ai/ha): 0
Goosegrass plant response rating ([3]; Postemergence, 125 g ai/ha): 0
Plant response rating, Goosegrass [3, 8]: 0
Plant response rating, Goosegrass [3, 9]: 0
Plant response rating, Goosegrass [3, 10]: 0
Plant response rating, Goosegrass [3, 11]: 0
Plant response rating, Goosegrass [3, 12]: 0
Plant response rating, Goosegrass [3, 13]: 0
Crabgrass plant response rating ([4]; Postemergence, 62 g ai/ha): 60
Crabgrass plant response rating ([4]; Postemergence, 125 g ai/ha): 60
Plant response rating, Crabgrass [4, 8]: 75
Plant response rating, Crabgrass [4, 9]: 80
Plant response rating, Crabgrass [4, 10]: 90
Plant response rating, Crabgrass [4, 11]: 90
Plant response rating, Crabgrass [4, 12]: 95
Plant response rating, Crabgrass [4, 13]: 95
Plant response rating, Nightshade [5, 14]: 95
Plant response rating, Nightshade ([5]; 125 g ai/ha, scale 0 to 100): 100
Plant response rating, Nightshade ([5]; 250 g ai/ha, scale 0 to 100): 100
Plant response rating, Nightshade ([5]; 500 g ai/ha, scale 0 to 100): 100
Velvetleaf plant response rating ([6]; Postemergence, 62 g ai/ha): 50
Velvetleaf plant response rating ([6]; Postemergence, 125 g ai/ha): 55
Plant response rating, Velvetleaf [6, 8]: 70
Plant response rating, Velvetleaf [6, 9]: 80
Plant response rating, Velvetleaf [6, 10]: 65
Plant response rating, Velvetleaf [6, 11]: 75
Plant response rating, Velvetleaf [6, 12]: 85
Plant response rating, Velvetleaf [6, 13]: 100
Bermudagrass plant response rating ([7]; Postemergence, 62 g ai/ha): 50
Bermudagrass plant response rating ([7]; Postemergence, 125 g ai/ha): 75
Plant response rating, Bermudagrass [7, 8]: 90
Plant response rating, Bermudagrass [7, 9]: 95
Plant response rating, Bermudagrass [7, 11]: 0
Plant response rating, Bermudagrass [7, 12]: 0
Plant response rating, Bermudagrass [7, 13]: 95
Corn plant response rating (corn (Zea mays); Postemergence, 62 g ai/ha): 0
Corn plant response rating (corn (Zea mays); Postemergence, 125 g ai/ha): 0
Plant response rating, Corn (corn (Zea mays); [8]): 60
Plant response rating, Corn (corn (Zea mays); [9]): 65
Plant response rating, Corn (corn (Zea mays); [10]): 10
Plant response rating, Corn (corn (Zea mays); [11]): 10
Plant response rating, Corn (corn (Zea mays); [12]): 20
Plant response rating, Corn (corn (Zea mays); [13]): 45

Nc1nc(C2CC2)nc(C=NO)c1Br [Compound 27]
Cocklebur plant response rating ([1]; Postemergence, 62 g ai/ha): 20
Cocklebur plant response rating ([1]; Postemergence, 125 g ai/ha): 25
Plant response rating, Cocklebur [1, 8]: 25
Plant response rating, Cocklebur [1, 9]: 25
Plant response rating, Cocklebur [1, 10]: 0
Plant response rating, Cocklebur [1, 11]: 50
Plant response rating, Cocklebur [1, 12]: 70
Plant response rating, Cocklebur [1, 13]: 95
Lambsquarters plant response rating ([2]; Postemergence, 62 g ai/ha): 20
Lambsquarters plant response rating ([2]; Postemergence, 125 g ai/ha): 20
Plant response rating, Lambsquarters [2, 8]: 25
Plant response rating, Lambsquarters [2, 9]: 50
Plant response rating, Lambsquarters [2, 11]: 40
Plant response rating, Lambsquarters [2, 12]: 90
Plant response rating, Lambsquarters [2, 13]: 100
Goosegrass plant response rating ([3]; Postemergence, 62 g ai/ha): 0
Goosegrass plant response rating ([3]; Postemergence, 125 g ai/ha): 0
Plant response rating, Goosegrass [3, 8]: 0
Plant response rating, Goosegrass [3, 9]: 0
Plant response rating, Goosegrass [3, 10]: 0
Plant response rating, Goosegrass [3, 11]: 0
Plant response rating, Goosegrass [3, 12]: 0
Plant response rating, Goosegrass [3, 13]: 20
Crabgrass plant response rating ([4]; Postemergence, 62 g ai/ha): 0
Crabgrass plant response rating ([4]; Postemergence, 125 g ai/ha): 0
Plant response rating, Crabgrass [4, 8]: 5
Plant response rating, Crabgrass [4, 9]: 30
Plant response rating, Crabgrass [4, 10]: 0
Plant response rating, Crabgrass [4, 11]: 0
Plant response rating, Crabgrass [4, 12]: 0
Plant response rating, Crabgrass [4, 13]: 85
Plant response rating, Nightshade [5, 14]: 0
Plant response rating, Nightshade ([5]; 125 g ai/ha, scale 0 to 100): 70
Plant response rating, Nightshade ([5]; 250 g ai/ha, scale 0 to 100): 100
Plant response rating, Nightshade ([5]; 500 g ai/ha, scale 0 to 100): 100
Velvetleaf plant response rating ([6]; Postemergence, 62 g ai/ha): 0
Velvetleaf plant response rating ([6]; Postemergence, 125 g ai/ha): 0
Plant response rating, Velvetleaf [6, 8]: 0
Plant response rating, Velvetleaf [6, 9]: 30
Plant response rating, Velvetleaf [6, 10]: 0
Plant response rating, Velvetleaf [6, 11]: 0
Plant response rating, Velvetleaf [6, 12]: 50
Plant response rating, Velvetleaf [6, 13]: 70
Bermudagrass plant response rating ([7]; Postemergence, 62 g ai/ha): 0
Bermudagrass plant response rating ([7]; Postemergence, 125 g ai/ha): 0
Plant response rating, Bermudagrass [7, 8]: 0
Plant response rating, Bermudagrass [7, 9]: 30
Plant response rating, Bermudagrass [7, 10]: 0
Plant response rating, Bermudagrass [7, 11]: 0
Plant response rating, Bermudagrass [7, 12]: 0
Plant response rating, Bermudagrass [7, 13]: 0
Corn plant response rating (corn (Zea mays); Postemergence, 62 g ai/ha): 0
Corn plant response rating (corn (Zea mays); Postemergence, 125 g ai/ha): 0
Plant response rating, Corn (corn (Zea mays); [8]): 0
Plant response rating, Corn (corn (Zea mays); [9]): 0
Plant response rating, Corn (corn (Zea mays); [10]): 0
Plant response rating, Corn (corn (Zea mays); [11]): 10
Plant response rating, Corn (corn (Zea mays); [12]): 15
Plant response rating, Corn (corn (Zea mays); [13]): 25

CC(C)COC(=O)c1nc(C2CC2)nc(N)c1Br [Compound 17]
Plant response rating (scale of 0 to 100), Cocklebur ([1]; Postemergence, 31 g ai/ha): 95
Cocklebur plant response rating ([1]; Postemergence, 62 g ai/ha): 100
Cocklebur plant response rating ([1]; Postemergence, 125 g ai/ha): 100
Plant response rating, Cocklebur [1, 8]: 100
Plant response rating, Cocklebur [1, 15]: 75
Plant response rating, Cocklebur [1, 10]: 90
Plant response rating, Cocklebur [1, 11]: 95
Plant response rating, Cocklebur [1, 12]: 100
Plant response rating (scale of 0 to 100), Lambsquarters ([2]; Postemergence, 31 g ai/ha): 95
Lambsquarters plant response rating ([2]; Postemergence, 62 g ai/ha): 100
Lambsquarters plant response rating ([2]; Postemergence, 125 g ai/ha): 100
Plant response rating, Lambsquarters [2, 8]: 100
Plant response rating, Lambsquarters [2, 15]: 95
Plant response rating, Lambsquarters [2, 10]: 95
Plant response rating, Lambsquarters [2, 11]: 100
Plant response rating, Lambsquarters [2, 12]: 100
Plant response rating (scale of 0 to 100), Goosegrass ([3]; Postemergence, 31 g ai/ha): 0
Goosegrass plant response rating ([3]; Postemergence, 62 g ai/ha): 0
Goosegrass plant response rating ([3]; Postemergence, 125 g ai/ha): 0
Plant response rating, Goosegrass [3, 8]: 0
Plant response rating, Goosegrass [3, 15]: 0
Plant response rating, Goosegrass [3, 10]: 0
Plant response rating, Goosegrass [3, 11]: 0
Plant response rating, Goosegrass [3, 12]: 0
Plant response rating (scale of 0 to 100), Crabgrass ([4]; Postemergence, 31 g ai/ha): 0
Crabgrass plant response rating ([4]; Postemergence, 62 g ai/ha): 0
Crabgrass plant response rating ([4]; Postemergence, 125 g ai/ha): 20
Plant response rating, Crabgrass [4, 8]: 65
Plant response rating, Crabgrass [4, 15]: 0
Plant response rating, Crabgrass [4, 10]: 0
Plant response rating, Crabgrass [4, 11]: 20
Plant response rating, Crabgrass [4, 12]: 80
Plant response rating, Nightshade [5, 14]: 80
Plant response rating, Nightshade ([5]; 125 g ai/ha, scale 0 to 100): 95
Plant response rating, Nightshade ([5]; 250 g ai/ha, scale 0 to 100): 100
Plant response rating (scale of 0 to 100), Velvetleaf ([6]; Postemergence, 31 g ai/ha): 25
Velvetleaf plant response rating ([6]; Postemergence, 62 g ai/ha): 50
Velvetleaf plant response rating ([6]; Postemergence, 125 g ai/ha): 80
Plant response rating, Velvetleaf [6, 8]: 95
Plant response rating, Velvetleaf [6, 15]: 20
Plant response rating, Velvetleaf [6, 10]: 80
Plant response rating, Velvetleaf [6, 11]: 100
Plant response rating, Velvetleaf [6, 12]: 100
Plant response rating (scale of 0 to 100), Bermudagrass ([7]; Postemergence, 31 g ai/ha): 0
Bermudagrass plant response rating ([7]; Postemergence, 62 g ai/ha): 0
Plant response rating, Bermudagrass [7, 8]: 0
Plant response rating, Bermudagrass ([7]; Postemergence, 125 g ai/ha, scale 0 to 100): 0
Plant response rating, Bermudagrass [7, 15]: 0
Plant response rating, Bermudagrass [7, 10]: 0
Plant response rating, Bermudagrass [7, 11]: 0
Plant response rating, Bermudagrass [7, 12]: 0
Plant response rating (scale of 0 to 100), Corn (corn (Zea mays); Postemergence, 31 g ai/ha): 0
Corn plant response rating (corn (Zea mays); Postemergence, 62 g ai/ha): 0
Corn plant response rating (corn (Zea mays); Postemergence, 125 g ai/ha): 0
Plant response rating, Corn (corn (Zea mays); [8]): 20
Plant response rating, Corn (corn (Zea mays); [15]): 0
Plant response rating, Corn (corn (Zea mays); [10]): 20
Plant response rating, Corn (corn (Zea mays); [11]): 35
Plant response rating, Corn (corn (Zea mays); [12]): 75

Source: US8802597B2, “Herbicidal pyrimidines” (E I du Pont de Nemours and Company, priority 2003, dated 2014)
